US20070117743A1, “New antitumoral compounds” (priority 2003, published 2007)
Where a SMILES comes first, the peptide text is derived from it. Bridges are numbered along the chain shown (N, C = ends). [ ]: non-standard residue; d: D form. The star is where a group is joined. d(aIle) = CC[C@H](C)[C@@H](N)C(=O)O; d(aThr) = C[C@@H](O)[C@@H](N)C(=O)O; hCha = N[C@@H](CCC1CCCCC1)C(=O)O; Hexanoyl(5-Me) = CC(C)CCCC(=O)*; dCha = N[C@H](CC1CCCCC1)C(=O)O; Orn = NCCC[C@H](N)C(=O)O; Dhb = C/C=C(\N)C(=O)O

Tests used:
Assay type in all cases: cell-based, human
[1] = test system: HeLa-APL; experiment: SRB colorimetric assay of cell growth and viability, HeLa-APL; settings: 48 hours exposure; for CC50: read-out: LC50 HELA-APL
[2] = test system: K-562; experiment: SRB colorimetric assay of cell growth and viability, K-562; settings: 48 hours exposure; for CC50: read-out: LC50 K-562
[3] = test system: SK-BR-3; experiment: SRB colorimetric assay of cell growth and viability, SK-BR-3; settings: 48 hours exposure
[4] = test system: HeLa; experiment: SRB colorimetric assay of cell growth and viability, HeLa; settings: 48 hours exposure; for CC50: read-out: LC50 HELA
[5] = test system: DU-145; experiment: SRB colorimetric assay of cell growth and viability, DU-145; settings: 48 hours exposure
[6] = test system: IGROV-ET; experiment: SRB colorimetric assay of cell growth and viability, IGROV-ET; settings: 48 hours exposure; for CC50: read-out: LC50 IGROV-ET
[7] = test system: IGROV-1; experiment: SRB colorimetric assay of cell growth and viability, IGROV-1; settings: 48 hours exposure
[8] = test system: LoVo; experiment: SRB colorimetric assay of cell growth and viability, LoVo; settings: 48 hours exposure; for CC50: read-out: LC50 LOVO
[9] = test system: PANC-1; experiment: SRB colorimetric assay of cell growth and viability, PANC-1; settings: 48 hours exposure
[10] = test system: SK-MEL-28; experiment: SRB colorimetric assay of cell growth and viability, SK-MEL-28; settings: 48 hours exposure; for CC50: read-out: LC50 MEL-28
[11] = test system: LNCaP; experiment: SRB colorimetric assay of cell growth and viability, LNCaP; settings: 48 hours exposure; for GI50: read-out: GI50 LN-caP; for CC50: read-out: LC50 LN-caP
[12] = test system: LoVo-Dox; experiment: SRB colorimetric assay of cell growth and viability, LoVo-Dox; settings: 48 hours exposure; for CC50: read-out: LC50 LOVO-DOX
Procedure, shortened: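 Sulforhodamine B assay run after 48 h of continuous drug contact; cells seeded 5×10^3/well in RPMI 1640 10% FBS, attached 18 h. Triplicate OD490 values give cytostatic (TGI), cytotoxic (LC) and GI parameters.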

[13] = test system: A-549; experiment: SRB colorimetric assay of cell growth and viability, A-549; settings: 48 hours exposure; for GI50: read-out: GI50 A-549; for CC50: read-out: LC50 A-549
[14] = test system: HT-29; experiment: SRB colorimetric assay of cell growth and viability, HT-29; settings: 48 hours exposure; for GI50: read-out: GI50 HT-29; for CC50: read-out: LC50 HT-29

For `C/C=C1\NC(=O)[C@H](Cc2ccccc2)NC(=O)[C@@H](C(C)C)NC(=O)[C@@H]([C@@H](C)CC)NC(=O)[C@H](NC(=O)[C@H](NC(=O)[C@H](CCCN)NC(=O)[C@H]2CCCN2C(=O)[C@H](NC(=O)[C@@H](NC(=O)[C@@H](NC(=O)[C@H](NC(=O)CCCC(C)C)C(C)C)[C@@H](C)O)C(C)C)C(C)C)[C@@H](C)CC)COC(=O)[C@H](C(C)C)NC1=O` [Compound 3, [D-Ser^6]-KF] ({Hexanoyl(5-Me)}-[dV]TV[dV][dP][Orn][d(aIle)][dS][d(aIle)][dV]F[Dhb]V; ester 8-C), the GI50 [1] was 1.37 µM, the “TGI HELA-APL” value [1] was 2.28E−06 Molar and the CC50 [1] was 3.78 µM. The GI50 [2] was 5.08 µM, the “TGI K-562” value [2] was 6.83E−06 Molar and the CC50 [2] was no less than 6.83 µM. The GI50 [3] was 0.406 µM, the LC50 [3] was 2.45 µM and the “TGI SK-BR-3” value [3] was 6.23E−07 Molar. For the same compound, the GI50 [4] was 1.35 µM, the “TGI HELA” value [4] was 2.64E−06 Molar and the CC50 [4] was 5.21 µM. The GI50 [5] was 0.833 µM, the LC50 (concentration causing 50% net cell kill) [5] was 3.44 µM and the “TGI DU-145” value [5] was 1.69E−06 Molar. The GI50 [6] was 0.264 µM, the “TGI IGROV-ET” value [6] was 6.38E−07 Molar and the CC50 [6] was 2.11 µM. The GI50 [7] was 0.455 µM, the LC50 (concentration causing 50% net cell killing) [7] was 3.16 µM and the “TGI IGROV” value [7] was 1.27E−06 Molar. The GI50 [8] was 0.189 µM, the “TGI LOVO” value [8] was 3.64E−07 Molar and the CC50 [8] was 0.758 µM. The GI50 [9] was 3.08 µM, the “TGI PANC-1” value [9] was 6.83E−06 Molar and the CC50 ([9]; read-out: LC50 PANC-1) was no less than 6.83 µM. For the same compound, the GI50 [10] was 1.57 µM, the “TGI MEL-28” value [10] was 2.66E−06 Molar and the CC50 [10] was 4.53 µM. For the same compound, the “TGI LN-caP” value [11] was 1.12E−06 Molar, the GI50 [11] was 0.372 µM and the CC50 [11] was 2.94 µM. The GI50 [12] was 0.179 µM, the “TGI LOVO-DOX” value [12] was 3.37E−07 Molar and the CC50 [12] was 0.637 µM. The “TGI A-549” value [13] was 2.46E−06 Molar, the GI50 [13] was 1.36 µM and the CC50 [13] was 4.47 µM. The “TGI HT-29” value [14] was 1.22E−06 Molar, the GI50 [14] was 0.378 µM and the CC50 [14] was 3.52 µM.
In the case of `C/C=C1\NC(=O)[C@H](Cc2ccccc2)NC(=O)[C@@H](C(C)C)NC(=O)[C@@H]([C@@H](C)CC)NC(=O)[C@H](NC(=O)[C@H](NC(=O)[C@H](CCCN)NC(=O)[C@H]2CCCN2C(=O)[C@H](NC(=O)[C@H](CCC2CCCCC2)NC(=O)[C@@H](NC(=O)[C@@H](CC2CCCCC2)NC(=O)CCCC(C)C)[C@@H](C)O)C(C)C)[C@@H](C)CC)[C@@H](C)OC(=O)[C@H](C(C)C)NC1=O` [Compound 10, [hCh^11, D-Cha^13]-KF] ({Hexanoyl(5-Me)}-[dCha]T[hCha][dV][dP][Orn][d(aIle)][d(aThr)][d(aIle)][dV]F[Dhb]V; ester 8-C), the GI50 [1] is reported as 3.67 µM, the “TGI HELA-APL” value [1] is reported as 6.25E−06 Molar and the CC50 [1] is reported as 6.25 µM. The GI50 [2] was 6.25 µM, the “TGI K-562” value [2] was 6.25E−06 Molar and the CC50 [2] was 6.25 µM. The GI50 [3] was 1.31 µM, the LC50 [3] was 4.16 µM and the “TGI SK-BR-3” value [3] was 2.32E−06 Molar. For the same compound, the GI50 [4] was 2.67 µM, the “TGI HELA” value [4] was 6.25E−06 Molar and the CC50 [4] was 6.25 µM. The GI50 [5] was 4.29 µM, the LC50 (concentration causing 50% net cell kill) [5] was 6.25 µM and the “TGI DU-145” value [5] was 6.25E−06 Molar. The GI50 [6] was 2.23 µM, the “TGI IGROV-ET” value [6] was 4.56E−06 Molar and the CC50 [6] was 6.25 µM. For the same compound, the GI50 [7] was 1.99 µM, the LC50 (concentration causing 50% net cell killing) [7] was 6.25 µM and the “TGI IGROV” value [7] was 3.84E−06 Molar. For the same compound, the GI50 [8] was 1.12 µM, the “TGI LOVO” value [8] was 2.27E−06 Molar and the CC50 [8] was 4.59 µM. For the same compound, the GI50 [10] was 3.1 µM, the “TGI MEL-28” value [10] was 6.25E−06 Molar and the CC50 [10] was 6.25 µM. The “TGI LN-caP” value [11] was 6.25E−06 Molar, the GI50 [11] was 4.89 µM and the CC50 [11] was 6.25 µM. For the same compound, the GI50 [12] was 0.537 µM, the “TGI LOVO-DOX” value [12] was 1.30E−06 Molar and the CC50 [12] was 2.94 µM. The “TGI A-549” value [13] was 6.25E−06 Molar, the GI50 [13] was 3.56 µM and the CC50 [13] was 6.25 µM. For the same compound, the “TGI HT-29” value [14] was 1.96E−06 Molar, the GI50 [14] was 1.06 µM and the CC50 [14] was 3.58 µM.
